The values that follow come from patent US5081284A, “Proteinase inhibitor” (Suntory Limited, priority 1989, dated 1992).

Experiment [1] deals with T1, calpain I (Homo sapiens, UniProt P07384).
T1 sequence (P07384 1-714): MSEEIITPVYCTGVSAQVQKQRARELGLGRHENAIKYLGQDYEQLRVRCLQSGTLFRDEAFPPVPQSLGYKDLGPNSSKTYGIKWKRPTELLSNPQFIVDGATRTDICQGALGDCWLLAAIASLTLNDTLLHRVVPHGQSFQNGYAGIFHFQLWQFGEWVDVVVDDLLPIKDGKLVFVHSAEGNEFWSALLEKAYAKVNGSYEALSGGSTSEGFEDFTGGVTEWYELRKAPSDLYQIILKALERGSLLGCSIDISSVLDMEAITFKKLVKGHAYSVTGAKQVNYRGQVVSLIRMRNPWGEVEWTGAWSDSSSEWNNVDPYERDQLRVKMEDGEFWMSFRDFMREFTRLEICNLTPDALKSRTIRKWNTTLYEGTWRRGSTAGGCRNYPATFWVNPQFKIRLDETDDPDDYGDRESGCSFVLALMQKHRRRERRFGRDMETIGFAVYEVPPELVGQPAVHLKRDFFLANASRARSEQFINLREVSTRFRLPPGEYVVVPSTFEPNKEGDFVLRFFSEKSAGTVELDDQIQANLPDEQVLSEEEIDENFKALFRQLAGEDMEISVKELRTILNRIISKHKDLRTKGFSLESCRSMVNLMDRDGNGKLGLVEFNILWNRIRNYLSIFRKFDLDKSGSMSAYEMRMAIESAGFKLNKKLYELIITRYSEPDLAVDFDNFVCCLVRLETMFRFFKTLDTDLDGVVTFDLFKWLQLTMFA
T1 sequence (P04632 1-268 partner): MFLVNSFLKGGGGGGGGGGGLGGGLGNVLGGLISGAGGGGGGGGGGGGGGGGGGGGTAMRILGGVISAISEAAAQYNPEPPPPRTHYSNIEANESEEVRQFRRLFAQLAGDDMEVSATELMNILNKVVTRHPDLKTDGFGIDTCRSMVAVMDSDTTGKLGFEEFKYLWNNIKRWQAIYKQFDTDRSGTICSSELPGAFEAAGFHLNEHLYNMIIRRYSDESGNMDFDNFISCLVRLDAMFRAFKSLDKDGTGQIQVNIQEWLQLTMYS
Briefly: Anti-calpain activity, calpain I (casein hydrolysis, Ross-Schatz method). The class given is biochemical.

Experiment [2] deals with T2, calpain II (Homo sapiens, UniProt P17655).
T2 sequence (P17655 1-700): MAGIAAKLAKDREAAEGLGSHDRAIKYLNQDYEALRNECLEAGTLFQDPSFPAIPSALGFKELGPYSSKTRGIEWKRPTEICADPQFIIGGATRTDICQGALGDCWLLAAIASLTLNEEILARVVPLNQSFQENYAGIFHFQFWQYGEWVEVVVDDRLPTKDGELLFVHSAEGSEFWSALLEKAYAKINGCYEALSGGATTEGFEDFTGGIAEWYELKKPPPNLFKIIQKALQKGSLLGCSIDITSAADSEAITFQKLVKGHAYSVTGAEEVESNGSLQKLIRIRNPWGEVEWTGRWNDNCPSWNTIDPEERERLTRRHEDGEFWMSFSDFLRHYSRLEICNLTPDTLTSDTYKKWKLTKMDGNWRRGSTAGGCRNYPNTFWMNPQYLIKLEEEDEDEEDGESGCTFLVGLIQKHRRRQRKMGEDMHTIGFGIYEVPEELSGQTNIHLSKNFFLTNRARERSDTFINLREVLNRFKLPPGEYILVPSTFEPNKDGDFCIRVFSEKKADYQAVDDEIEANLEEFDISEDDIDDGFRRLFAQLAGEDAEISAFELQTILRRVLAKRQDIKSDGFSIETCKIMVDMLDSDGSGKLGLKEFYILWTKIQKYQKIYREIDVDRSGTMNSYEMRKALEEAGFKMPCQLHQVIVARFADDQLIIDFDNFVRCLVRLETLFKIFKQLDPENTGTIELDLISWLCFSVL
T2 sequence (P04632 1-268 partner): T1 sequence (P04632 1-268 partner)
Briefly: Anti-calpain activity, calpain II (casein hydrolysis, Ross-Schatz method). The class given is biochemical.

The target of experiment [3] is T3, papain (Carica papaya, UniProt P00784).
T3 sequence (P00784 134-345): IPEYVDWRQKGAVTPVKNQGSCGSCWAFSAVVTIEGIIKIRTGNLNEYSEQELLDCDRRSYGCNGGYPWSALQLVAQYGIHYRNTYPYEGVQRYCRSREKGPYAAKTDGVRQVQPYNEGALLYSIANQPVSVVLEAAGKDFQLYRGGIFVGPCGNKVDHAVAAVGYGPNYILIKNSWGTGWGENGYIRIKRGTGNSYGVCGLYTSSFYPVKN
Briefly: Anti-papain activity (casein hydrolysis, Lowry-Folin method). It is filed as biochemical. As for the experimental part: (§1) A mixture of a test compound of the present invention, papain (0.015 units) and a citrate buffer solution (20 mM, pH=6.2,1 ml) containing EDTA (0.88 mg) was preincubated at 30° C. for 5 minutes and a substrate solution (1 ml) was added to start the reaction. The substrate was a 1% solution of casein in the citrate buffer. The reaction was performed at 30° C. for 20 minutes. The reaction was quenched by adding 6.5% trichloroacetic acid (3 ml) to the reaction solution. The amount of casein that had been hydrolyzed enzymatically in the trichloroacetic acid soluble fraction was measured by the Lowry-Folin method and the inhibitory activity of the test compound was determined by comparison with the control solution.
as §1, with “pH=6.2, 1” for “pH=6.2,1”

Experiment [4] has as its target cathepsin B (Bos taurus, UniProt P07688). Briefly: Anti-cathepsin activity (cathepsin B, benzyloxycarbonyl-L-lysine-p-nitrophenyl ester substrate). It is filed as biochemical, bovine. As for the experimental part: A mixture of a test compound of the present invention and an acetate buffer solution (25 mM, pH=5.1, with 1 mM EDTA, 3.15 ml) containing a substrate (benzyloxycarbonyl-L-lysine-p-nitrophenyl ester, 0.114 mg) was preincubated at 30° C. for 1 minute. To the mixture, a solution (0.05 ml) of cathepsin B (derived from bovine spleen; product of Sigma; 0.05 units) in the acetate buffer was added to start the reaction. Immediately after the start of reaction, the change in absorbance at 326 nm was measured and the inhibitory activity of the test compound was determined by comparison with the control solution.

The mark [5] stands for this setting: Table 6 (Example 29), pH 7.5, 30° C., 30 minutes, casein, read-out: Inhibitory activity toward calpain I, IC50.
[6] abbreviates: Table 7 (Example 29), pH 7.5, 30° C., 30 minutes, casein, read-out: Inhibitory activity toward calpain II, IC50.
The mark [7] stands for this setting: Table 5 (Example 29), pH 6.2, 30° C., 20 minutes, casein, read-out: Inhibitory activity toward papain, IC50.
Setting [8] is: Table 8 (Example 29), pH 5.1, 30° C., from bovine spleen, read-out: Inhibitory activity toward cathepsin B, IC50.

Molecules are shown by their SMILES. pIC50: −log10 of the molar value. Like-named read-outs stand apart in the source and are kept apart here.

One may read the pIC50 as the negative decadic logarithm of the IC50, by convention in mol/L. For `CCCC[C@@H](C=O)NC(=O)[C@H](CC(C)C)NC(=O)CC(C)C` [Example 3, N-isovaleryl-L-leucyl-L-norleucinal], the pIC50 is 7.00 in experiment [1] (setting [5]), 6.89 in experiment [2] (setting [6]), 6.92 in experiment [3] (setting [7]) and 6.29 in experiment [4] (setting [8]).

Turning to `CCCC[C@@H](C=O)NC(=O)[C@H](CC(C)C)NC(=O)OCc1ccc(Cl)cc1` [Example 6, N-(p-chlorobenzyloxycarbonyl)-L-leucyl-L-norleucinal], the pIC50 was 7.06 in experiment [1] (setting [5]), 6.89 in experiment [2] (setting [6]), 7.24 in experiment [3] (setting [7]) and 7.15 in experiment [4] (setting [8]).

In the case of `CCCC[C@@H](C=O)NC(=O)[C@H](CC(C)C)NC(=O)OCc1ccc(OC)cc1` [Example 7, N-(p-methoxybenzyloxycarbonyl)-L-leucyl-L-norleucinal], the pIC50 in experiment [1] (setting [5]) is 7.00; in experiment [2] (setting [6]), 6.89; in experiment [3] (setting [7]), 6.60; in experiment [4] (setting [8]), 6.82.

For `CCCC[C@@H](C=O)NC(=O)[C@H](CC(C)C)NC(=O)OCc1ccc([N+](=O)[O-])cc1` [Example 8, N-(p-nitrobenzyloxycarbonyl)-L-leucyl-L-norleucinal], the negative logarithm of the IC50 (pIC50) in experiment [1] (setting [5]) is 7.04; in experiment [2] (setting [6]), 6.89; in experiment [3] (setting [7]), 7.51; in experiment [4] (setting [8]), 7.00.

Consider `CCCC[C@@H](C=O)NC(=O)[C@H](CC(C)C)NC(=O)OCc1ccccc1Cl` [Example 9, N-(o-chlorobenzyloxycarbonyl)-L-leucyl-L-norleucinal], for which the negative-log IC50 (pIC50) in experiment [1] (setting [5]) is 6.96; in experiment [2] (setting [6]), 6.89; in experiment [3] (setting [7]), 6.80; in experiment [4] (setting [8]) it was 6.85.

With `CCCC[C@@H](C=O)NC(=O)[C@H](CC(C)C)NP(=S)(c1ccccc1)c1ccccc1` [Example 14, N-diphenylphosphonothioyl-L-leucyl-L-norleucinal], the pIC50 in experiment [1] is 7.05; in experiment [2] it was 6.92; in experiment [3], 6.77; in experiment [4] it was 7.10.
